Data on one compound can be found in patent US20190151340A1, “POLYMERIC NAN[…]” (priority 2017, published 2019).

The structures appear in SMILES notation.

Data set [1] has as its system human tumor xenograft models. As to conditions: Albanell and Adams 2002; cited from earlier work.
Data set [2] has as its system relapsed and refractory multiple myeloma. The settings on record: Richardson et al. 2003, Phase 2; cited from earlier work.
A short description of data set [3]: Comparative toxicity in wild-type mice (body weight, lethality). Type of data set: in vivo, CD1 wild type mice. The protocol: The effect of nanoparticles in mitigating the toxicity of bortezomib was examined in wild-type mice. Different doses of bortezomib alone (1.5, 3, 6, 9 and 12 mg/kg) or bortezomib-nanoparticles (NP) (0.9, 1.8, 3.6, 5.4 and 7.2 mg/kg) were injected into CD1 wild type. Three mice were used in each group of bortezomib alone and bortezomib-NP groups, body weights, food and water uptake were measured every day for 22 days.

Turning to `CC(C)C[C@H](NC(=O)[C@H](Cc1ccccc1)NC(=O)c1cnccn1)B(O)O` [bortezomib, N-2-pyrazinecarbonyl-L-phenylalanine-L-leucineboronic acid], the antitumor activity result in data set [1] is “significant antitumor activity”. Also, the effectiveness in patients result in data set [2] was “effectiveness in treating relapsed and refractory multiple myeloma”. Besides, the values for the survival entry in data set [3] (6 mg/kg dose) and in data set [3] (9 mg/kg dose) were “two” and “died after Day 1”, respectively.
